# Data as given in US20170184604A1, “DD1ALPHA RECEPTOR AND USES THEREOF IN IMMUNE DISORDERS” (THE GENERAL HOSPITAL CORPORATION, priority 2014, published 2017).
# Tests used:
# [1] = test system: DD1α; test: Ig fusion protein-pull down assay; format: binding, human
# Procedure: FIGS. 6A-6E show physical association of DD1α with PD1 but not with PD-L1. (FIG. 6A) Interaction of DD1α with PD1 or DD1α. […] The bound Ig fusion proteins were detected with anti-Ig-APC. Empty vector (pcDNA3.1)-transfected cells stained with Ig proteins are shown as a negative control (gray filled) and other staining is shown as black open. (FIG. 6B) DD1α binds to both DD1α and PD1 on CD4+ T cells. Purified CD4+ T cells from Wt and DD1α−/− mice were assayed for binding to Ig fused DD1α or PD1 proteins. Cells were incubated with DD1α-Ig (open), PD1-Ig (open), or control Ig proteins (gray filled) and the bound Ig fusion proteins were detected by anti-Ig-APC. […] The bound Ig fusion proteins were detected by anti-Ig-APC. Binding amounts were determined by percentage of APC positive cells compared to control Ig protein-bound cells. (FIG. 6C) Ig-pulldown experiments show DD1α interaction with both DD1α and PD1. […] The bead bound proteins were eluted and determined by western blot analysis using anti-HA antibody (asterisks). (FIG. 6D) Ig fusion proteins (control Ig, DD1α-Ig, or PD1-Ig) were incubated with lysates from Nutlin-3-treated MCF7 cells and pulled down using protein A/G agarose. The bead bound proteins were eluted and detected by western blot analysis with anti-DD1α or anti-PD1 antibody (asterisk). (FIG. 6E) p53-mediated induction of PD1 and PD-L1. MCF7 cells were treated by Nutlin-3 (10 μM) for 1 to 3 days. MCF7 cells were transfected with control siRNA or p53 siRNA for 24 hours and treated with CPT (500 nM) or DMSO (control) for 1 and 2 days. The levels of indicated proteins were analyzed by western blot analysis. Total RNAs from control siRNA or p53 siRNA transfected MCF7 cells were assessed for mRNA levels of PD1 or PD-L1 by real-time quantitative PCR. PD1 or PD-L1 mRNA levels were normalized to 36B4 expression and shown as mean±SD (n=3). Protein levels of PD1 and PD-L1 were examined in EJ-p53tet cells in the absence or presence of tetracycline (tet), ZR75-1 cells treated with CPT (500 nM), or A375 cells exposed to 13 Gy ionizing irradiation for the indicated times.
# Ig fusion proteins (control Ig, DD1α-Ig, or PD1-Ig) were incubated with lysates from Nutlin-3-treated MCF7 cells and pulled down using proten A/G agarose. The bead bound proteins were eluted and detected by western blot analysis with anti-DD1α or anti-PD1 antibody.
# Based on the results that both PD-1 and DD1α receptors on T cells contribute to the co-inhibitory roles for DD1α(FIG. 5), it was tested whether DD1α could physically and functionally associate with PD-1 receptor. […] To confirm the specificity of this interaction, the inventors carried out Ig fusion protein-pull down assays using lysates from PD-1, DD1α, or TIM3-transfected 293T cells. […]
# [2] = test system: human CD8+ T cells; test: Human T cell activation assay (CFSE proliferation); format: cell-based; settings: various concentrations with 3 μg/ml anti-CD3
# Procedure: (FIG. 5A) DD1α inhibits the activation of human CD4+ T cells and CD8+ T cells. Enriched human CD4+ T cells and CD8+ T cells were stained with CFSE (1 μM) and stimulated with plate-bound anti-CD3 antibody (3 μg/ml) together with 2, 5, or 10 μg/ml of DD1α-Ig proteins or control Ig proteins. The proliferations of CD4+ T or CD8+ T cells were determined by the percentages of CFSE-labeled CD4+ T or CD8+ T cells at the 72-hour culture. The levels of cytokines IFN-γ and TNF-α in culture supernatant were analyzed by ELISA at the 48-hour culture. (FIG. 5B) DD1α-mediated inhibition of T cell activation is modulated by α-PD1 antibodies. […] The proliferation and cytokine production of CD4+ T cells were determined as FIG. 5A. […] The proliferations of CD4+ T cells were determined by percentage of CFSE-diluted CD4+ cells on day 3. The levels of cytokines IFN-γ and IL-2 in culture supernatant were analyzed by ELISA on day 2. (FIG. 5D) DD1α mediates Foxp3+ iTreg cell development. […]
# The amount of Ig protein was kept constant at 10 μg/ml by the addition of control Ig protein. […] On day 3, cells were stained with anti-CD4-APC (OKT4, eBioscience for human CD4+ T cells; RM4-5, eBioscience for mouse CD4+ T cells) or anti-CD8-APC (SK1, eBioscience for human CD8+ T cells; 53-6.7, eBioscience for mouse CD8+ T cells) and then analyzed for CFSE dilution by flow cytometry.
# Chain of DD1α (Q9H7M9 33-311): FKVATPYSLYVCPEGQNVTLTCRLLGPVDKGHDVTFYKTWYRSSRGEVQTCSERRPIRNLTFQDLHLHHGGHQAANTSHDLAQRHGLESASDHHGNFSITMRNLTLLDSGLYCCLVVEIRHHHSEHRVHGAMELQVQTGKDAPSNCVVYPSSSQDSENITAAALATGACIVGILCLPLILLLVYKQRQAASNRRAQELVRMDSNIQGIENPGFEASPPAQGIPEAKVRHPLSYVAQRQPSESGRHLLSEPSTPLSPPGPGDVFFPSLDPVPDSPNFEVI
substance,measurement,setting,value
DD1α-Ig: the extracellular region of DD1α fused with the immunoglobulin G Fc segment,pull down of DD1α,[1]; lysates from transfected 293T cells,pulled down
same,pull down of endogenous DD1α receptor,[1]; lysates of Nutlin-3-treated MCF7 cells,detected
same,CD8+ T cell proliferation stimulated by anti-CD3,[2],strongly inhibited
